Numbered stars: 1 amine (or outer) side, 2 acyl side, 3 side chain; on linkers, the order of the positions; unused ones are H or OH. Bridge positions count the residues as written; N and C are the ends. Square brackets hold non-standard residues; d marks the D form. Peptide text beside a SMILES is read from it. I, II: the chains in the order shown. * marks the point of attachment. NOTA = O=C(O)CN1CCN(CC(=O)O)CCN(CC(=O)*)CC1; X1 = O=C(CCC(=O)[*:2])NCCOCCOCC(=O)[*:1]; 2Thi = N[C@@H](Cc1cccs1)C(=O)O; Nle = CCCC[C@H](N)C(=O)O; AEEA = NCCOCCOCC(=O)O; βAla = NCCC(=O)O
Legend:
[1] = type: in vitro ADME; settings: 24 h
Description: Plasma and in vivo stability studies were realized as previously described by our group. Briefly, after peptide reconstitution, studies were carried out by incubating the tracers in mouse plasma for a period of 24 h and by injecting around 15 to 25 MBq (400 to 650 μCi; 100 μL) of ^64Cu/peptide to female Balb/c mice; 3 mice per peptide. After 24 h, a portion of the incubation mixtures in plasma or blood samples taken from the back paw were quenched with equal amounts of MeCN, chilled (4°C) and centrifuged, and the supernatant was assayed by HPLC. The stability was also determined by radio-TLC directly from plasma and blood samples without further handling; free ^64Cu and purified radiolabeled peptides were used as standards. The radio-TLCs were eluted on C-18-coated plastic sheets with 0.1 M sodium citrate buffer at pH 5.5 using an instant imager system for the radio-detection.

in vivo = experiment: in vivo; parameters: species or system Balb/c nude mice; settings: Balb/c nude, mouse, total radioactivity
Description: (§1) Tumor-bearing Balb/c nude mice were injected with 370 to 740 kBq (10 to 20 μCi; 100 μL) of ^64Cu/NOTA-monomer and ^64Cu/NOTA-dimer 2 via the caudal vein and sacrificed with CO2 at different periods of time after injection. Organs of interest were then collected and weighed. -Radioactivity was measured in a gamma counter. The blocking experiments were realized by co-injecting 0.1 μmol of non-radiolabeled peptide. The results were expressed as %ID/g with a minimum of 3 mice for each condition.

PC3 tumor = experiment: in vivo; parameters: species or system Balb/c nude mice; settings: mouse
Description: as §1

GRPR [2] = biological target: T1, GRPR (Mus musculus, UniProt P21729); experiment: Biodistribution in Balb/c mice (in vivo GRPR-targeting efficacy); settings: 64Cu-labeled peptide, 30 min p.i.; for Pancreas uptake: female Balb/c mice
T1 construct: using the pancreas, a GRPR-rich tissue, as a target for specific receptor-mediated accumulation; from tissue; host or cells: Female Balb/c mice, in vivo; organs (pancreas and others) collected 30 min p.i
T1 sequence (P21729 whole entry): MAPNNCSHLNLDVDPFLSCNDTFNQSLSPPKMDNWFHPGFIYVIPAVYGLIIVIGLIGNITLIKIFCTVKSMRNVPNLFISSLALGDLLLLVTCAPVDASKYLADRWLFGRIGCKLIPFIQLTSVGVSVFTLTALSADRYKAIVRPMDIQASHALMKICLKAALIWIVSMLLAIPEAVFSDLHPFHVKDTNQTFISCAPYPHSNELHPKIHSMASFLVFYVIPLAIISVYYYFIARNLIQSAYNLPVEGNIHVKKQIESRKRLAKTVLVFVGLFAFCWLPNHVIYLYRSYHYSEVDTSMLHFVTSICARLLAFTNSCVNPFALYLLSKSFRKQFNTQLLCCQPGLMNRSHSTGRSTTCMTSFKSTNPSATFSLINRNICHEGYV
Description: To determine the in vivo GRPR-targeting efficacy of labeled peptides, biodistribution of female Balb/c mice were realized with a minimum of 4 mice for each condition. Briefly, mice were injected with 370 to 740 kBq (10 to 20 μCi; 100 μL) of either ^64Cu/NOTA-monomer, ^64Cu/NOTA-dimer 1 or ^64Cu/NOTA-dimer 2 via the caudal vein. The animals were sacrificed with CO2 at 30 min post-injection [p.i.]. Organs of interest were then collected, weighed and measured in a gamma counter. The results were expressed as percentage of the injected dose per gram of tissue [%ID/g].

[3] = Solubility in physiological media; type: physicochemical; settings: 64Cu-labeled peptide; DMF-PBS (10/90 v/v) used to solubilize
Description: Our cyclotron facility provides ^64Cu isotope on a routine basis for research purposes using a target system developed in collaboration with Advanced Cyclotron Systems Inc. (ACSI, Richmond, British Columbia, Canada). ^64Cu was prepared on an EBCO TR-19 cyclotron (EBCO Technologies, Vancouver, Canada) by the ^64Ni(p, n)^64Cu nuclear reaction using an enriched ^64Ni target electroplated on a rhodium disk. [^64Cu]CuCl2 was recovered from the target following the procedure of McCarthy et al. and converted to [^64Cu]copper[II] acetate by dissolving the [^64Cu]CuCl2 in ammonium acetate (0.1 M; pH 5.5). Peptides were labeled with ^64Cu following conditions optimized in our laboratory. Briefly, peptides (5 μg) were dissolved in a 0.1 M ammonium acetate buffer at pH 5.5 with [^64Cu]Cu(OAc)2 (8 to 10 mCi, 296 to 370 MBq) in a total volume of 250 to 300 μL, and then, the resulting solution was incubated at 100°C for 10 min. The labeled product was purified by HPLC using a C-18 column and a radio-detector. The amount of radiolabeled peptide was determined by the peak area of the tracer in the UV-chromatogram compared to the UV peak area of the standard unlabelled peptide (Figure 3). […] The peptide fraction was collected, evaporated and counted in a Capintec radioisotope calibrator (Capintec, Inc., NJ, USA) to calculate the specific activity of the product.

GRPR [4] = biological target: GRPR (Homo sapiens, UniProt P30550); experiment: Competitive binding assay with [125I-Tyr4]bombesin on PC3 cells; parameters: host or cells: PC3 cells (whole, adherent cells in 24-well plates); settings: read-out: Ki (affinity for GRPR)
GRPR (Homo sapiens, UniProt P30550), sequence (P30550 whole entry): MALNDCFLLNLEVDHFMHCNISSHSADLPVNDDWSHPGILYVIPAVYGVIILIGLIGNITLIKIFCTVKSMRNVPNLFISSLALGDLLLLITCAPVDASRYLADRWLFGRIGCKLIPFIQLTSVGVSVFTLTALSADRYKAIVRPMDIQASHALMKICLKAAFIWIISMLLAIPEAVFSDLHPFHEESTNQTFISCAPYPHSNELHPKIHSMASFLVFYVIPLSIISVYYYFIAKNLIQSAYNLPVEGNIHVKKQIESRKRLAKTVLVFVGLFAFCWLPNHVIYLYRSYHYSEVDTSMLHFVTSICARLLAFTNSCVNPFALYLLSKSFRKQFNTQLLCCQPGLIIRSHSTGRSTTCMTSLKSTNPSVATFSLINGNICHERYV
Description: Competition assays were performed in 24-well plates using PC3 cells. The cells were cultured until near confluence, and the medium was replaced by 400 μL of reaction medium (RPMI complemented with 2 mg/mL BSA, 4.8 mg/mL HEPES, 1 U/mL penicillin G and 1 μg/mL streptomycin). For the assay, equal volumes of radioactive and non-radioactive ligands were added. […] The plates were incubated for 40 min at 37°C with agitation. After the incubation, the reaction medium was removed, and the cells were washed three times with PBS at room temperature. The cells were harvested and counted in a gamma counter (Cobra II auto-gamma counter, Packard, MN, USA). Experiments were realized three times in triplicate. Data were analyzed with GraphPad Prism 5 Software (GraphPad Software, San Diego, CA, USA) to determine the IC50. Finally, the Ki was determined using Cheng and Pursoff's formula [32].

CCCC[C@H](NC(=O)[C@H](Cc1cccs1)NC(=O)[C@H](Cc1c[nH]cn1)NC(=O)CCNC(=O)[C@@H](NC(=O)[C@H](C)NC(=O)[C@H](Cc1c[nH]c2ccccc12)NC(=O)[C@H](CCC(N)=O)NC(=O)[C@@H](Cc1ccc(O)cc1)NC(=O)COCCOCCNC(=O)CN1CCN(CC(=O)O)CCN(CC(=O)O)CC1)C(C)C)C(N)=O [^64Cu/NOTA-monomer, metal not drawn] ({NOTA-AEEA}-[dY]QWAV[βAla]H[2Thi][Nle]-NH2)
Stability in mouse plasma [1]: stable
tissue to tissue ratio at 0.5 h (in vivo; iv, Tumor/blood ratio): 1.49 ± 0.41
tissue uptake at 0.5 h (in vivo; Biodistribution Liver): 5.38 ± 8.12 %ID/g
tissue uptake at 0.5 h (in vivo; Biodistribution Pancreas): 5.1 ± 2.5 %ID/g
Biodistribution Adrenal (PC3 tumor; Balb/c nude, 0.5 h): 4.29 ± 1.13 %ID/g
Biodistribution Blood (PC3 tumor; Balb/c nude, 0.5 h): 1.35 ± 0.47 %ID/g
Biodistribution Bone (PC3 tumor; Balb/c nude, 0.5 h): 0.43 ± 0.46 %ID/g
Biodistribution Brain (PC3 tumor; Balb/c nude, 0.5 h): 0.08 ± 0.07 %ID/g
Biodistribution Fat (PC3 tumor; Balb/c nude, 0.5 h): 0.65 ± 0.54 %ID/g
Biodistribution Heart (PC3 tumor; Balb/c nude, 0.5 h): 1.05 ± 0.91 %ID/g
Biodistribution Kidney (PC3 tumor; Balb/c nude, 0.5 h): 10.42 ± 1.29 %ID/g
Biodistribution Lungs (PC3 tumor; Balb/c nude, 0.5 h): 1.77 ± 1.28 %ID/g
Biodistribution Muscle (PC3 tumor; Balb/c nude, 0.5 h): 0.40 ± 0.33 %ID/g
Biodistribution Plasma (PC3 tumor; Balb/c nude, 0.5 h): 2.48 ± 0.63 %ID/g
Biodistribution Spleen (PC3 tumor; Balb/c nude, 0.5 h): 1.63 ± 1.82 %ID/g
Biodistribution Tumor (PC3 tumor; Balb/c nude, 0.5 h): 1.79 ± 0.46 %ID/g
Tumor/kidney ratio (PC3 tumor; Balb/c nude, iv, 0.5 h): 0.17 ± 0.04
Tumor/liver ratio (PC3 tumor; Balb/c nude, iv, 0.5 h): 2.07 ± 1.13
Tumor/muscle ratio (PC3 tumor; Balb/c nude, iv, 0.5 h): 7.42 ± 3.17
Tumor/pancreas ratio (PC3 tumor; Balb/c nude, iv, 0.5 h): 0.44 ± 0.17
Tumor/muscle ratio (PC3 tumor): 7.42 ± 0.41

CCCC[C@H](NC(=O)[C@H](Cc1cccs1)NC(=O)[C@H](Cc1c[nH]cn1)NC(=O)CCNC(=O)[C@@H](NC(=O)[C@H](C)NC(=O)[C@H](Cc1c[nH]c2ccccc12)NC(=O)[C@H](CCC(N)=O)NC(=O)[C@@H](Cc1ccc(O)cc1)NC(=O)CCC(=O)NCCOCCOCC(=O)N[C@@H](CCCCNC(=O)CN1CCN(CC(=O)O)CCN(CC(=O)O)CC1)C(=O)NCC(=O)N[C@H](Cc1ccc(O)cc1)C(=O)N[C@@H](CCC(N)=O)C(=O)N[C@@H](Cc1c[nH]c2ccccc12)C(=O)N[C@@H](C)C(=O)N[C@H](C(=O)NCCC(=O)N[C@@H](Cc1c[nH]cn1)C(=O)N[C@@H](Cc1cccs1)C(=O)N[C@@H](CCCC)C(N)=O)C(C)C)C(C)C)C(N)=O [NOTA-dimer 1, BBN(6-14)-Suc-PEG-Lys(NOTA)-Gly-BBN(6-14)] (I: K(NOTA)G[dY]QWAV[βAla]H[2Thi][Nle]-NH2 / II: [dY]QWAV[βAla]H[2Thi][Nle]-NH2; linker I:N-II:N via X1)
Pancreas uptake (GRPR [2]): 15.6 ± 2.0 %ID/g
Solubility in physiological media [3]: poorly soluble
Ki (GRPR [4]): 2 ± 1.59 nM

CCCC[C@H](NC(=O)[C@H](Cc1cccs1)NC(=O)[C@H](Cc1c[nH]cn1)NC(=O)CCNC(=O)[C@@H](NC(=O)[C@H](C)NC(=O)[C@H](Cc1c[nH]c2ccccc12)NC(=O)[C@H](CCC(N)=O)NC(=O)[C@@H](Cc1ccc(O)cc1)NC(=O)CCC(=O)NCCOCCOCC(=O)N[C@@H](CCCCNC(=O)CN1CCN(CC(=O)O)CCN(CC(=O)O)CC1)C(=O)NCCOCCOCC(=O)NCC(=O)N[C@H](Cc1ccc(O)cc1)C(=O)N[C@@H](CCC(N)=O)C(=O)N[C@@H](Cc1c[nH]c2ccccc12)C(=O)N[C@@H](C)C(=O)N[C@H](C(=O)NCCC(=O)N[C@@H](Cc1c[nH]cn1)C(=O)N[C@@H](Cc1cccs1)C(=O)N[C@@H](CCCC)C(N)=O)C(C)C)C(C)C)C(N)=O [NOTA-dimer 2, BBN(6-14)-Suc-PEG-Lys(NOTA)-PEG-Gly-BBN(6-14)] (I: K(NOTA)[AEEA]G[dY]QWAV[βAla]H[2Thi][Nle]-NH2 / II: [dY]QWAV[βAla]H[2Thi][Nle]-NH2; linker I:N-II:N via X1)
Fold higher pancreas uptake than NOTA-monomer and NOTA-dimer 1 (GRPR [2]; Balb/c mice): 3.6 fold
Pancreas uptake (GRPR [2]): 57 ± 16 %ID/g
Solubility in physiological media [3]: poorly soluble
Ki (GRPR [4]): 1.76 ± 1.3 nM
